In ChEMBL document CHEMBL1151645, “Constituents of Solanum dasyphyllum Fruit” (J Nat Prod, 1985):
The source made the active and inactive calls. The calls are words filed in the database; no cut-off is given here.

Species: Mus musculus
Experiment: Anticonvulsant activity in mouse
Type: functional, organism-based

SMILES | Activity
C[C@@H]1CC[C@@]2(NC1)O[C@H]1C[C@H]3[C@@H]4CC=C5C[C@@H](O[C@@H]6O[C@H](CO)[C@H](O)[C@H](O[C@@H]7O[C@H](CO)[C@@H](O)[C@H](O)[C@H]7O)[C@H]6O[C@@H]6O[C@@H](C)[C@H](O)[C@@H](O)[C@H]6O)CC[C@]5(C)[C@H]4CC[C@]3(C)[C@H]1[C@@H]2C | inactive
C[C@@H]1CC[C@@]2(NC1)O[C@H]1C[C@H]3[C@@H]4CC=C5C[C@@H](O[C@@H]6O[C@H](CO)[C@@H](O[C@@H]7O[C@@H](C)[C@H](O)[C@@H](O)[C@H]7O)[C@H](O)[C@H]6O[C@@H]6O[C@@H](C)[C@H](O)[C@@H](O)[C@H]6O)CC[C@]5(C)[C@H]4CC[C@]3(C)[C@H]1[C@@H]2C | inactive
